Data set [1] has as its system Laser-induced Choroidal Neovascularization (CNV). Briefly: Laser-induced Choroidal Neovascularization (CNV) in Rat (CNV Assay). The format is in vivo. As to the method:
Laser-induced Choroidal Neovascularization (CNV) in Rat (CNV Assay). CNV was induced and quantified in this model as previously described (Edelman and Castro. Exp. Eye Res. 2000; 71:523-533). On day 0, male Brown Norway rats (200-300 g) were anesthetized with 100 mg/kg Ketamine and 10 mg/kg Xylazine, and pupils were dilated with 1% Tropicamide. Using the blue-green setting of a Coherent Novus Argon Laser, 3 laser bums (90 mW for 0.1 s; 100 μm diameter) were given to each eye between the retinal vessels around the optic nerve head. […]
On day 10, rats were sacrificed with 100% CO2, and blood vessels were labeled by vascular perfusion with 10 mg/ml FITC-dextran (MW 2×10^6). Using an epifluorescence microscope (20×) coupled to a spot digital camera and a PC, images were obtained from the flat mounts of the RPE-choroid-sclera from each eye, and the area occupied by hyperfluorescent neovessels within each laser lesion was measured using ImagePro 4 software.
(§1) To determine the dose required for 50% inhibition (ID50), the percent inhibition data was plotted as a function of oral dose, using the ‘best-fit’ analysis within MicroSoft Excel software. The ID50 value was verified visually by using the plotted data (horizontal line from 50% y value, at intersection with best-fit line drop vertical line to x axis (dose)).

Data set [2] deals with T1, cytoplasmic domain of the human VEGF receptor (VEGFR-2) (Homo sapiens, UniProt P35968).
T1 construct: The cytoplasmic domain of the human VEGF receptor (VEGFR-2) was expressed as a Histidine-tagged fusion protein; Histidine tag
T1 sequence (P35968 786-1356): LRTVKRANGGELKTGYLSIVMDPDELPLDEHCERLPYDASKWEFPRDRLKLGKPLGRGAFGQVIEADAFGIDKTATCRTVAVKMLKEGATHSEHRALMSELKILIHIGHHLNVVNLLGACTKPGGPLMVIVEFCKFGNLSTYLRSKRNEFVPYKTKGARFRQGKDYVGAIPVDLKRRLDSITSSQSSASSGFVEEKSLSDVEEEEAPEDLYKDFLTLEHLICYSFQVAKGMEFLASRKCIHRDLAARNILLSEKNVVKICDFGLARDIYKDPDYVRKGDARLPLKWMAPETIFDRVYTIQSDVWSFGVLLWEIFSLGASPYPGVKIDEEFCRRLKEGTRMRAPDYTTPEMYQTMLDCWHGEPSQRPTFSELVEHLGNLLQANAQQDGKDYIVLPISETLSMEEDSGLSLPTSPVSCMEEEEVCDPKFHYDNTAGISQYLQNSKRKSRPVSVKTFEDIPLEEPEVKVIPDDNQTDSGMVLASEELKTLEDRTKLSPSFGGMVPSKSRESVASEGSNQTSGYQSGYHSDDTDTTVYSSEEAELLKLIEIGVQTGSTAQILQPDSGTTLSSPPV
Briefly: KDR Assay. The format is biochemical. The following applies: His-VEGFR-2; 3.6 μM ATP. The gist of the method: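 IC50 taken from blank-corrected OD492 curves of an anti-phosphotyrosine peroxidase ELISA. Reaction: 10 min, 25 °C, 3.6 μM ATP, 50 mM Hepes pH 7.4 with 20 mM MgCl2, 0.1 mM MnCl2 and 5% DMSO, on poly-Glu-Tyr-coated wells, started with insect-cell-expressed His-VEGFR-2 cytoplasmic domain.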

Data set [3] has as its system VEGF-induced EBD extravasation. As to the kind of experiment: VEGF-induced Dermal Extravasation in Guinea Pig (Miles Assay). Format: in vivo. How it is done: VEGF-induced Dermal Extravasation in Guinea Pig (Miles Assay). Male Hartley guinea pigs (300-600 g) were anesthetized with isofluorane, sheared, and given a single dose of drug or the respective vehicle. The guinea pigs were dosed orally unless indicated otherwise in Table 3. Ten minutes prior to the end of drug treatment, guinea pigs were anesthetized with isofluorane, and 0.5% Evans blue dye (EBD) in PBS (13-15 mg/kg dose of EBD) was injected intravenously. After 5 minutes, triplicate intradermal injections of 100 ng rhVEGF165 in 100 μl PBS and of 100 μl PBS alone were administered on the flank. After 20 minutes, each animal was euthanized with Pentosol, and the skin containing the intradermal injection sites was removed for image analysis.
Using an analog video camera coupled to a PC, an image of each trans-illuminated skin sample was captured, and the integrated optical density of each injection site was measured using ImagePro 4. For each skin sample, the difference between the mean optical density of the VEGF sites and mean optical density of the PBS sites is the measure of VEGF-induced EBD extravasation in that animal. These measured values were averaged per study group to determine the mean VEGF-induced EBD extravasation for each experimental condition, and the group means were then compared to assess inhibition of VEGF-induced EBD extravasation in the drug-treated groups relative to the vehicle-treated controls.
as §1

Data set [4] has as its system VEGF induced increases in intracellular calcium levels in HUVEC (human umbilical vein endothelial cells). As to the kind of experiment: VEGF Stimulated Ca++ Signal in vitro (FLIPR). As to conditions: VEGF 5 ng/mL; for IC50: 0.01 to 10.0 μM. Format: cell-based. In short, it runs like this: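 IC50 values derive from % inhibition of the VEGF (5 ng/mL) calcium response, taken as max-min fluorescence at 516 nm in Fluo-4-loaded HUVEC. Compounds (0.1% DMSO final) were added 30 min before stimulation, at 10 μM or across 0.01–10.0 μM.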

Some results are limits rather than exact numbers.

The IC50 is the concentration that gives 50% inhibition. Usually inhibition stands for the percentage by which the read-out fell short of the control. As for `O=C1Nc2ccccc2C1=CNc1ccc(N2CCOCC2)cc1` [Example 40], the “CNV Assay % inhibition” value is recorded as 95% in data set [1] (20 mg/kg (bid), PEG400, oral); 54% in data set [1] (20 mg/kg (sid), PEG400, oral); 96% in data set [1] (40 mg/kg (sid), PEG400, oral); 92% in data set [1] (50 mg/kg (bid), corn oil, oral); 74% in data set [1] (100 mg/kg (sid), corn oil, oral). In addition, the “CNV Assay % inhibition (toxicity noted)” value in data set [1] (100 mg/kg (sid), PEG400, oral) was “toxic”. For the same compound, the “CNV Assay ID50 (mg/kg)” value in data set [1] (oral dose for 50% inhibition) was “˜20 mg/kg”. In data set [2], this compound showed an IC50 of 250 nM. Also, the “Miles Assay % inhibition” value in data set [3] (1 mg/kg, I.V. bolus in 20% methyl cyclodextrin, preincubation period 0.5 h) is recorded as 0%; in data set [3] (1 mg/kg, I.V. bolus in 20% methyl cyclodextrin, preincubation period 1 h) it was 0%; in data set [3] (1 mg/kg, I.V. bolus in 20% methyl cyclodextrin, preincubation period 2 h), 0%; in data set [3] (10 mg/kg, 43% methyl cyclodextrin, preincubation period 1 h), 6%; in data set [3] (75 mg/kg, PEG400, oral) it was 100%; in data set [3] (75 mg/kg, corn oil, oral) it was 47%. The “Miles Assay % inhibition” value in data set [3] (75 mg/kg, homogenized corn oil, oral) is 40%; in data set [3] (75 mg/kg, micronized corn oil, oral), 52%. Also, the “Miles Assay ID50” value in data set [3] (oral dose for 50% inhibition) is reported as 18 mg/kg. For the same compound, the inhibition at 10 µM in data set [4] (Homo sapiens) stood at 96.7%.

With `CC1CN(c2ccc(NC=C3C(=O)Nc4ccccc43)cc2)CC(C)O1` (stereo not drawn) [Example 159, 3-{[4-(2,6-Dimethyl-morpholin-4-yl)-phenylamino]-methylene}-1,3-dihydro-indol-2-one], in data set [1] (100 mg/kg (sid), 10% DMAC, 10% NMP, 80% PEG400, oral), the “CNV Assay % inhibition” value is 41%. Besides, the 50% inhibitory concentration (IC50) in data set [2] is 350 nM; in data set [4], 580 nM; in data set [4] (Homo sapiens), not above 1000 nM. In addition, the “Miles Assay % inhibition” value in data set [3] (75 mg/kg, PEG400, oral) worked out at 91%. In addition, the inhibition at 10 µM in data set [4] (Homo sapiens) was found to be 97.4%.

Turning to `CCN(CC)CCCOc1ccc(NC=C2C(=O)Nc3cccc(C)c32)cc1` [Example 231, 3-{[4-(3-Diethylamino-propoxy)-phenylamino]-methylene}-4-methyl-1,3-dihydro-indol-2-one], in data set [1] (80 mg/kg (sid), corn oil, oral), the “CNV Assay % inhibition” value is listed as 85%. This compound came in with an IC50 in data set [2] of 70 nM. Further, the “Miles Assay % inhibition” value in data set [3] (75 mg/kg, corn oil, oral) was 93%. Moreover, the inhibition at 10 µM in data set [4] (Homo sapiens) was 93.3%.

For `O=C1Nc2cc(F)ccc2C1=CNc1ccc(OCCCN2CCCCC2)cc1` [Example 239, 6-Fluoro-3-{[4-(3-piperidin-1-yl-propoxy)-phenylamino]-methylene}-1,3-dihydro-indol-2-one], the “CNV Assay % inhibition” value in data set [1] (40 mg/kg (sid), corn oil, oral) worked out at 56%. In data set [2], this compound returned an IC50 of 150 nM. Moreover, the “Miles Assay % inhibition” value in data set [3] (75 mg/kg, corn oil, oral) is recorded as 100%. The inhibition at 10 µM in data set [4] (Homo sapiens) came out at 97.7%.

Consider `O=C1Nc2ccccc2C1=CNc1ccc(NCCN2CCOCC2)cc1` [Example 235, 3-{[4-(2-Morpholin-4-yl-ethylamino)-phenylamino]-methylene}-1,3-dihydro-indol-2-one], for which the “CNV Assay % inhibition” value in data set [1] (40 mg/kg (sid), corn oil, oral) is 63%. In data set [2], this compound had an IC50 of 240 nM. Further, in data set [3] (75 mg/kg, corn oil, oral), the “Miles Assay % inhibition” value came out at 99%. Besides, in data set [4] (Homo sapiens), the inhibition at 10 µM came out at 98.2%.

`O=C1Nc2ccccc2C1=CNc1ccc(OCCCN2CCCCC2)cc1` [Example 218, 3-{[4-(3-Piperidin-1-yl-propoxy)-phenylamino]-methylene}-1,3-dihydro-indol-2-one]: the “CNV Assay % inhibition” value in data set [1] (9.3 mg/kg (sid), corn oil, oral) worked out at 33%; in data set [1] (38.5 mg/kg (sid), corn oil, oral), 68%; in data set [1] (80 mg/kg (sid), corn oil, oral) it was 99%. The “CNV Assay ID50” value in data set [1] (oral dose for 50% inhibition) was found to be 17 mg/kg. This compound also showed a 50% inhibitory concentration (IC50) in data set [2] of 170 nM. In addition, the “Miles Assay % inhibition” value in data set [3] (75 mg/kg, PEG400, oral) worked out at 99%; in data set [3] (75 mg/kg, corn oil, oral) it was 97%. The inhibition at 10 µM in data set [4] (Homo sapiens) was 98.1%.

In the case of `CCN(CC)CCCOc1ccc(NC=C2C(=O)Nc3cc(F)ccc32)cc1` [Example 234, 3-{[4-(3-Diethylamino-propoxy)-phenylamino]-methylene}-6-fluoro-1,3-dihydro-indol-2-one], the “CNV Assay % inhibition” value in data set [1] (8.6 mg/kg (sid), corn oil, oral) is 18%; in data set [1] (35 mg/kg (sid), corn oil, oral), 76%; in data set [1] (80 mg/kg (sid), corn oil, oral), 97%. Besides, the “CNV Assay ID50” value in data set [1] (oral dose for 50% inhibition) is 19 mg/kg. In data set [2], this compound registered an IC50 of 110 nM. For the same compound, the “Miles Assay % inhibition” value in data set [3] (75 mg/kg, corn oil, oral) is reported as 95%. The inhibition at 10 µM in data set [4] (Homo sapiens) was 96.1%.

The values above are taken from patent US20030225152A1, “3-(Arylamino)methylene-1, 3-dihydro-2h-indol-2-ones as kinase inhibitors” (priority 2001, published 2003).
